No end group written: not given here. C16 = N-terminal C16 lipid
Key:
Assay type in all cases: cell-based
[1] = system: human stromal progenitor cells; assay: Collagen deposited by human stromal progenitor cells (Sirius Red assay); details: for amount of collagen deposited, higher compared to PA self-assembled in medium: self-assembled in water
Protocol: (§1) The amount of collagen deposited by the cells is investigated using the Sirius Red assay (Jimenez et al., 1985). In specific, cells are fixed in 70% ice-cold ethanol and transferred to −80° C. for at least 10 min to ensure the complete fixation of the material. Subsequently, the ethanol solution is removed and each well was gently washed with distilled water. Cells are treated with Sirius-red/picric acid solution (Sigma Aldrich) and incubated overnight at 4° C. with gentle agitation. The following day, any unbound dye is removed and cells were gently rinsed with distilled water. Cells are then treated with 500 μl of 1M NaOH (Fisher Scientific) at room temperature for 10 min under agitation to disperse the solution and 100 μL aliquots of each sample were then transferred in triplicate to a 96 well plate. The total collagen is calculated by comparing the absorbance of the resulting samples at 490 nm, read using either a Multiskan Ascent™ or a Varioskan™ Lux (both from Thermo Fisher Scientific), to that of known standard concentrations of collagen. Each tested condition is performed in triplicate. • 1.5 Atomic Force Microscopy (AFM)
(§2) The effect of the different nanostructure on biocompatibility and bioactivity was investigated next. For this study, the lipopeptides were used as a media supplement, rather than coating. The bioactivity of the lipopeptides has been evaluated for three different cell types, namely human stromal progenitor cells, human adipose-derived mesenchymal stem cells (hASCs) and immortalized mouse myoblast cell line (C2C12). • 2.2.1 Effect on Human Stromal Progenitor Cells
(§3) The inventors hypothesised that the effect exerted by the same lipopeptide molecule can be different depending on the solvent in which the self-assembly is initiated. Lumican, Matrixyl and RGDS lipopeptides were investigated as supplements to culture media using stock solutions which were previously self-assembled either in water or in medium. Specifically, cells were cultured for 7 days and proliferation was assessed at day 3 and 7, whereas collagen deposition was analysed at day 7.

[2] = system: immortalized mouse myoblast cell line (C2C12); assay: C2C12 proliferation (Alamar Blue); details: solubilised in medium; 25 and 50 μM; since day 3
Protocol: (§4) Cell proliferation can be evaluated via Alamar Blue assays, with cell number extrapolated from standard calibration curves using known number of cells for each experiment. Cells are incubated at 37° C. with resazurin reagent at 50 μM (Sigma Aldrich), prepared in 1:10 dilution using fresh culture medium, for […], after which 100 μl of culture supernatants (in triplicate) are sampled for fluorescence emission analysis at 590 nm using either a Fluoroskan Ascent fluorescent spectrophotometer or a Varioskan™ Lux (both from Thermo Scientific). The incubation time differ depending on the experiment and on the cell type. • 1.4 Collagen Deposit Assay
C2C12 were cultured up to 7 days in serum-free medium (SFM) supplemented either with Lumican or Matrixyl or RGDS lipopeptides. Each lipopeptide stock was prepared above its c.a.c. either in serum-free medium (SFM) or in water (H2O). C2C12 proliferation was evaluated using Alamar Blue assay at day 3 and 7. The amount of deposited collagen was quantified using the Sirius Red assay at day 7.

[3] = system: human stromal progenitor cells; assay: Human stromal progenitor cell proliferation (Alamar Blue), lipopeptides as media supplement
Protocol: as §4, §2, §3

[4] = system: immortalized mouse myoblast cell line (C2C12); assay: Collagen deposited by C2C12 (Sirius Red assay); details: 25 and 50 μM; day 7
Protocol: as §1, with “Each tested condition is performed in triplicate. • 1.5 Atomic Force Microscopy (AFM)” left out
C2C12 were cultured up to 7 days in serum-free medium (SFM) supplemented either with Lumican or Matrixyl or RGDS lipopeptides. […] C2C12 proliferation was evaluated using Alamar Blue assay at day 3 and 7. The amount of deposited collagen was quantified using the Sirius Red assay at day 7.

[5] = system: human adipose-derived mesenchymal stem cells (hASCs); assay: hASC proliferation (Alamar Blue); details: 50 μM; day 3 and 7; not significant
Protocol: as §4
The hASCs were also cultured with RGDS lipopeptide previously solubilised above its c.a.c. in water and then diluted in SFM at the final concentration of 50 μM (FIG. 4). This was to understand if the different self-assembled structures affected hASCs behaviour as found for human stromal progenitor cell.
(§5) Moreover, hASCs were also cultured with Lumican or Matrixyl lipopeptides previously solubilised above their c.a.c. in water and then diluted in SFM at the final concentration of 50 μM (FIG. 5).

[6] = system: human adipose-derived mesenchymal stem cells (hASCs); assay: Collagen deposited by hASCs (Sirius Red assay); details: 7 days in culture, not significant
Protocol: as §1, §5

## C16-YEALRVANEVTLN [Lumican lipopeptide]
[1]; independently of the solvent (water or medium) of self-assembly, 7 days
  collagen deposition compared to the control (SFM): significantly increased collagen deposition
[1]; 12 μM, 7 days
  amount of collagen deposited, higher compared to PA self-assembled in medium: 15%
[1]; 25 μM, 7 days
  amount of collagen deposited, higher compared to PA self-assembled in medium: ≈ 75%
[2]
  cell proliferation: significantly increased cell proliferation
[3]; self-assembled in medium, 12 and 25 μM
  cell proliferation compared to non-supplemented SFM: slightly increased cell proliferation only up to day 3
[3]; self-assembled in water, supplemented at 25 μM and 12 μM, day 3 and 7
  cell proliferation compared to non-supplemented serum free medium (SFM): significantly increased cell proliferation
[4]
  collagen deposited when solubilised in SFM rather than water: significantly increased
[5]
  cell proliferation when solubilised in medium rather than water: slightly increase cell proliferation
[6]; solubilised in water
  collagen deposited by hASCs: slightly increased the collagen deposited

## C16-KTTKS [Matrixyl lipopeptide]
[1]; self-assembled in SFM, day 7
  amount of deposited collagen compared to the control: significantly increased the amount of deposited collagen
  amount of deposited collagen, higher compared to lipopeptide self-assembled in water: 55%
[2]
  cell proliferation: significantly increased
[3]; self-assembled in SFM, day 7, both conditions
  cell viability compared to the control: dramatically decreased cell viability
[4]
  collagen deposited when solubilised in SFM rather than water: significantly increased
[5]
  cell proliferation when solubilised in medium rather than water: slightly increase cell proliferation
[6]; solubilised in SFM
  collagen deposited by hASCs: slightly increased the collagen deposited
